# Several values for one entry are separate records, joined by “and”; a condition that tells them apart may be missing. Equal values may be shown once.
# What was measured:
# GLUT2 = target: T1, GLUT2 (Homo sapiens, UniProt P11168); assay: Glucose transport inhibitor cell screening assay, 25 mM D-glucose for 30 minutes; settings: for % Glucose Transport inhibition 25 mM / GLUT2 inhibition (in words): 25 mM D-glucose; for % Glucose Transport inhibition 25 mM: 30 minutes, actives at 150 uM, differentiated Caco-2 monolayer; for inhibition at 25000 µM: Caco-2, read-out: % Glucose Transport inhibition 25 mM; for GLUT2 inhibition (in words): Caco-2 cell model
# T1 sequence (P11168 1-524): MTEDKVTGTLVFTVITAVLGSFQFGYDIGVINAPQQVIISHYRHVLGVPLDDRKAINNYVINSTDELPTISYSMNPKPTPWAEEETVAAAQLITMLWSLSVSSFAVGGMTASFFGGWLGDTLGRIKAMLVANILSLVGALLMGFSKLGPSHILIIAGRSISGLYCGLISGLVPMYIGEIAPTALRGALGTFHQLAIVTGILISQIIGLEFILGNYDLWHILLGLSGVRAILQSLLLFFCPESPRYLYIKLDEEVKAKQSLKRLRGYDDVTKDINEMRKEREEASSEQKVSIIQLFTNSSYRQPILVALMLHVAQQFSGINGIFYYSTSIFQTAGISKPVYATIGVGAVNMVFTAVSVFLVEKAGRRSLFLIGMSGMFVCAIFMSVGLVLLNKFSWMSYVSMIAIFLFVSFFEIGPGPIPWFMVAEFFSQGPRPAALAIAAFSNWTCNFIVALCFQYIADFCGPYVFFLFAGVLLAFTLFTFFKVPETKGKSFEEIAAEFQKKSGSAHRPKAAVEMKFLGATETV
# SGLT1 = assay: Glucose transport inhibitor cell screening assay, 5 mM D-glucose for 15 minutes; settings: for % Glucose Transport inhibition 5 mM / SGLT1 inhibitory activity (in words): 5 mM D-glucose; for % Glucose Transport inhibition 5 mM: 15 minutes, actives at 300 uM, differentiated Caco-2 monolayer; for SGLT1 inhibitory activity (in words): Caco-2 cell model; for Class (assigned class of transporter inhibited): based on inhibition at 5 mM and 25 mM D-glucose
# [1] = target: T2, Human Lactase Phloridzin Hydrolase (hLPH) (Homo sapiens, UniProt P09848); assay: hLPH enzyme assay (glucoside hydrolysis by LPH extract); format: in vitro ADME; settings: for μM substrate hydrolysed/hr: glucoside 1.0 mM, 10% LPH extract (Caco2), 1 hour, 37° C., pH 6.0; for Resistance to hydrolysis - % Q4G: resistance to LPH hydrolysis relative to quercetin-4-glucoside (Q4G)
# T2 construct: at confluence for 21 days prior to extraction with a Novagen ProteoExtract™ trans-membrane Protein Extraction kit; endogenous in cells; host or cells: Caco-2 cells (ATCC), 21 days at confluence; membrane protein extract desalted over G-25 Sephadex
# Protocol: Extracts were stored at −80° C. in 50 ul aliquots. Prior to use extracts were semi-purified, removing low molecular weight interfering components by passing through a small G-25 Sephadex 50-100 μl spin-column (Roche or ThermoFisher Scientific). 10 μl of semi-purified LPH extract was added to 90 μl of glucoside (1.0 mM final concentration) in 0.1 M maleate (Sigma) buffer, pH 6.0 and incubated for 60 minutes at 37° C. The reaction was terminated by addition of 200 μl 2M Tris (Sigma), pH 8.0. […] This allowed a full recovery of glucose which was measured using the Amplex® Red Glucose/Glucose Oxidase Assay. […] Fluorescence was read on a SpectraMax Gemini EM SN plate reader (Molecular Devices) (excitation. 530 nm and emission at 590 nm).
# [2] = tested on: differentiated Caco-2 monolayers; assay: Glucose transport cell model, total cumulative glucose transport (synergy); format: cell-based, Human; settings: active only in 25 mM D-glucose for remaining 45 minutes (NC Pz 300 μM, NC R 75 μM)
# T2 sequence (P09848 869-1927): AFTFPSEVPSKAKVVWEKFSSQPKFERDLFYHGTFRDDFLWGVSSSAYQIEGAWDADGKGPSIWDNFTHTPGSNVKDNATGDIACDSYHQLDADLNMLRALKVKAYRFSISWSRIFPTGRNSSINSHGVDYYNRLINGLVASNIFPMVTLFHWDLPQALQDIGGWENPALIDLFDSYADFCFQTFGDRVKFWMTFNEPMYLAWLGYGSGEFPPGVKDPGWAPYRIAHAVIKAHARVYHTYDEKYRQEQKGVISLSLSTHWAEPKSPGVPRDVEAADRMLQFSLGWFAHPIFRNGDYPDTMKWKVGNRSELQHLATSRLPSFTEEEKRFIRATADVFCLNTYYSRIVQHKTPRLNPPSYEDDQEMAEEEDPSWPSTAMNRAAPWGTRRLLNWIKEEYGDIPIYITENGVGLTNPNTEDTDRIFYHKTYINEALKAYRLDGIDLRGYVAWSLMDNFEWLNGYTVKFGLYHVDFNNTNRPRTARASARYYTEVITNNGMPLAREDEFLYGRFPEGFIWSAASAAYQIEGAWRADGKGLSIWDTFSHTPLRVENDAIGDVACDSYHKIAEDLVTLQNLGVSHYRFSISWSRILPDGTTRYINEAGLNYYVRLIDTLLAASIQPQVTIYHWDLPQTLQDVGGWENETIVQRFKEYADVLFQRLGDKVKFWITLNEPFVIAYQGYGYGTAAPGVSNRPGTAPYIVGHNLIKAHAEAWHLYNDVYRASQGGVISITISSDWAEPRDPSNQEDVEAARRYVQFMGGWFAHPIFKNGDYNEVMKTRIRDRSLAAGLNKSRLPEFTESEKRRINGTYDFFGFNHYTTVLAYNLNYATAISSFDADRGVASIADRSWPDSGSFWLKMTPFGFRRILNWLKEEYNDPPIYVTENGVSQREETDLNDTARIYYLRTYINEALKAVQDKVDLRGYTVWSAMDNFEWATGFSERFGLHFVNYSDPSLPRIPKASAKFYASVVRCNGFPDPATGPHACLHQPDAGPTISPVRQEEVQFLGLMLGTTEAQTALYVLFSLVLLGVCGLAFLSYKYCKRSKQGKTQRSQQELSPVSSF
smiles,measurement,setting,value
O=c1cc(-c2ccc(O)cc2)oc2cc(OC3O[C@H](CO)[C@@H](O)[C@H](O)[C@H]3O)cc(O)c12 (stereo partly drawn) [Apigenin-7-glucoside],% Glucose Transport inhibition 25 mM,GLUT2,12.81%
O=c1cc(-c2ccc(O)cc2)oc2c([C@@H]3O[C@H](CO)[C@@H](O)[C@H](O)[C@H]3O)c(O)cc(O)c12 [Apigenin-8-C-glucoside],% Glucose Transport inhibition 5 mM,SGLT1,33.84%
same,SGLT1 inhibitory activity (in words),SGLT1,inhibition of SGLT1
same,Class (assigned class of transporter inhibited),SGLT1,SGLT1
same,% Glucose Transport inhibition 25 mM,GLUT2,5.76%
same,μM substrate hydrolysed/hr,[1],0.685 μM substrate hydrolysed/hr
same,Resistance to hydrolysis - % Q4G,[1]; listed as A8G,77.90%
Oc1cc(O)c2cc(O)c(-c3ccc(O)c(O)c3)[o+]c2c1 [Cyanidin],% Glucose Transport inhibition 5 mM,SGLT1,7.93%
O=c1c(-c2ccc(O)cc2)coc2cc(O[C@@H]3O[C@H](CO)[C@@H](O)[C@H](O)[C@H]3O)ccc12 [Daidzein-7-glucoside],% Glucose Transport inhibition 5 mM,SGLT1,35.03%
same,SGLT1 inhibitory activity (in words),SGLT1,inhibition of SGLT1
same,Class (assigned class of transporter inhibited),SGLT1,SGLT1
same,% Glucose Transport inhibition 25 mM,GLUT2,7.23%
O=c1c(-c2ccc(O)cc2)coc2c([C@@H]3O[C@H](CO)[C@@H](O)[C@H](O)[C@H]3O)c(O)ccc12 [Daidzein-8-C-glucoside],Resistance to hydrolysis - % Q4G,[1]; listed as D8G,82.19%
Oc1cc(O)c2cc(O)c(-c3cc(O)c(O)c(O)c3)[o+]c2c1 [Delphinindin],Class (assigned class of transporter inhibited),SGLT1,None
same,% Glucose Transport inhibition 25 mM,GLUT2,15.86%
O=C1C[C@@H](c2ccc(O)c(O)c2)Oc2cc(O[C@@H]3O[C@H](CO)[C@@H](O)[C@H](O)[C@H]3O)cc(O)c21 [Eriodictyol-7-O-glucoside],% Glucose Transport inhibition 25 mM,GLUT2,4.98%
O=c1c(O[C@@H]2O[C@H](CO)[C@@H](O)[C@H](O)[C@H]2O)c(-c2ccc(O)cc2)oc2cc(O)cc(O)c12 [Kaempferol 3-O-glucoside],Resistance to hydrolysis - % Q4G,[1]; listed as K3G,92.8% and 92.78%
O=c1c(O)c(-c2ccc(O)cc2)oc2cc(O[C@@H]3O[C@H](CO)[C@@H](O)[C@H](O)[C@H]3O)cc(O)c12 [Kaempferol 7-O-glucoside],% Glucose Transport inhibition 5 mM,SGLT1,43.89%
same,SGLT1 inhibitory activity (in words),SGLT1,inhibition of SGLT1
same,Class (assigned class of transporter inhibited),SGLT1,SGLT1
same,% Glucose Transport inhibition 25 mM,GLUT2,14.42%
same,μM substrate hydrolysed/hr,[1],0.618 μM substrate hydrolysed/hr
same,Resistance to hydrolysis - % Q4G,[1]; listed as K7G,80.05%
O=c1cc(-c2ccc(O)c(O)c2)oc2cc(O[C@@H]3O[C@H](CO)[C@@H](O)[C@H](O)[C@H]3O)cc(O)c12 [Luteolin-7-glucoside],% Glucose Transport inhibition 5 mM,SGLT1,44.09%
same,SGLT1 inhibitory activity (in words),SGLT1,inhibition of SGLT1
same,Class (assigned class of transporter inhibited),SGLT1,SGLT1
same,% Glucose Transport inhibition 25 mM,GLUT2,17.03%
same,μM substrate hydrolysed/hr,[1],0.814 μM substrate hydrolysed/hr
same,Resistance to hydrolysis - % Q4G,[1]; listed as L7G,73.72%
COc1cc(-c2[o+]c3cc(O)cc(O)c3cc2O[C@@H]2O[C@H](CO)[C@H](O)[C@H](O)[C@H]2O)cc(OC)c1O [Malvidin 3-O-Galactoside],% Glucose Transport inhibition 25 mM,GLUT2,10.41%
COc1cc(-c2[o+]c3cc(O)cc(O)c3cc2O[C@@H]2O[C@H](CO)[C@@H](O)[C@H](O)[C@H]2O)cc(OC)c1O [Malvidin-3-O-glucoside],% Glucose Transport inhibition 25 mM,GLUT2,10.91%
COc1cc(-c2[o+]c3cc(O)cc(O)c3cc2O)cc(OC)c1O [Malvidin],% Glucose Transport inhibition 5 mM,SGLT1,14.21%
same,inhibition at 25000 µM,GLUT2,4.99%
O=C1CC(c2ccc(O)cc2)Oc2cc(O[C@@H]3O[C@H](CO)[C@@H](O)[C@H](O)[C@H]3O)cc(O)c21 (stereo partly drawn) [Naringenin-7-O-glucoside],% Glucose Transport inhibition 25 mM,GLUT2,0.06%
same,Resistance to hydrolysis - % Q4G,[1]; listed as N7G,49.5% and 49.52%
OC[C@H]1O[C@@H](Oc2cc3c(O)cc(O)cc3[o+]c2-c2ccc(O)cc2)[C@H](O)[C@@H](O)[C@@H]1O [Pelargonidin-3-glucoside],Resistance to hydrolysis - % Q4G,[1]; listed as P3G,58.94%
Oc1ccc(-c2[o+]c3cc(O)cc(O)c3cc2O)cc1 [Pelargonidin],% Glucose Transport inhibition 5 mM,SGLT1,4.07%
same,inhibition at 25000 µM,GLUT2,16.5%
"O=C(CCc1ccc(O)cc1)c1c(O)cc(O)cc1O[C@@H]1O[C@H](CO)[C@@H](O)[C@H](O)[C@H]1O [Phloridzin, reference compound]","total Cumulative Glucose Transport (tCGT), active added later with high D-glucose",[2],no inhibition
same,inhibition at 25000 µM,GLUT2,18.4%
same,μM substrate hydrolysed/hr,[1],0.507 μM substrate hydrolysed/hr
same,Resistance to hydrolysis - % Q4G,[1],at least 20%
same,Resistance to hydrolysis - % Q4G,[1]; listed as PLZ,83.64%
Oc1cc(O)cc(/C=C/c2ccc(O)c(O)c2)c1 [Piceatannol],% Glucose Transport inhibition 5 mM,SGLT1,89.28%
same,Class (assigned class of transporter inhibited),SGLT1,GLUT2 (GLUT2 having >20% inhibition at both 5 mM & 25 mM)
same,inhibition at 25000 µM,GLUT2,32.7%
COc1cc(/C=C/c2ccc(O)cc2)cc(OC)c1 [Pterostilbene],% Glucose Transport inhibition 5 mM,SGLT1,18.44%
same,inhibition at 25000 µM,GLUT2,8.26%
Oc1ccc(C=Cc2cc(O)cc(O)c2)cc1 [Resveratrol],% Glucose Transport inhibition 5 mM,SGLT1,76.07%
same,Class (assigned class of transporter inhibited),SGLT1,GLUT2 (GLUT2 having >20% inhibition at both 5 mM & 25 mM)
same,"total Cumulative Glucose Transport (tCGT), active added later with high D-glucose",[2],significant reduction
same,inhibition at 25000 µM,GLUT2,59%
same,GLUT2 inhibition (in words),GLUT2,GLUT2 inhibitors
OC[C@H]1O[C@@H](Oc2ccc(O)cc2)[C@H](O)[C@@H](O)[C@@H]1O [arbutin],SGLT1 inhibitory activity (in words),SGLT1,lack of SGLT1 inhibitory activity
O=C(O)/C=C/c1ccc(O)c(O)c1 [caffeic acid],SGLT1 inhibitory activity (in words),SGLT1,no inhibitory activity
same,GLUT2 inhibition (in words),GLUT2,no inhibitory activity
O=C(/C=C/c1ccc(O)c(O)c1)O[C@@H]1C[C@](O)(C(=O)O)C[C@@H](O)[C@H]1O [chlorogenic acid],SGLT1 inhibitory activity (in words),SGLT1,no inhibitory activity
same,GLUT2 inhibition (in words),GLUT2,no inhibitory activity
O=C(/C=C/c1ccc(O)c(O)c1)O[C@H](Cc1ccc(O)c(O)c1)C(=O)O [rosmarinic acid],SGLT1 inhibitory activity (in words),SGLT1,no inhibitory activity
same,GLUT2 inhibition (in words),GLUT2,no inhibitory activity
